Results taken from publication PMC12384454, “Study of the Lipophilicity of Tetracyclic Anticancer Azaphenothiazines” (Biomolecules, 2025).

system: MDA; test: not given; set-up: method as in earlier work; details: MTT assay; cited from earlier work

SMILES | IC50 [µM]
Clc1ccc2c(c1)N(CCN1CCCC1)c1nc3ccccc3cc1S2 [compound 3] | 77.1 ± 1.6
CN1CCCCC1CCN1c2cc(Cl)ccc2Sc2cc3ccccc3nc21 (stereo not shown) [compound 5] | 16.7 ± 1.1
CC(=O)NCCCN1c2cc(Cl)ccc2Sc2cc3ccccc3nc21 [compound 7] | 76.6 ± 8.9
COc1cccc2c1C(=O)c1c(O)c3c(c(O)c1C2=O)C[C@@](O)(C(=O)CO)C[C@@H]3O[C@H]1C[C@H](N)[C@H](O)[C@H](C)O1 [DX, doxorubicin, reference compound] | 0.8 ± 0.1
Cc1ccc(S(=O)(=O)NCCCN2c3cc(Cl)ccc3Sc3cc4ccccc4nc32)cc1 [compound 11] | < 100
CC(=O)NCCCCN1c2cc(Cl)ccc2Sc2cc3ccccc3nc21 [compound 13] | < 100

same assay, conditions: selectivity index vs HaCaT; cited from earlier work

SMILES | SI MDA
Clc1ccc2c(c1)N(CCN1CCCC1)c1nc3ccccc3cc1S2 [compound 3] | 1.3
CN1CCCCC1CCN1c2cc(Cl)ccc2Sc2cc3ccccc3nc21 (stereo not shown) [compound 5] | 0.9
CC(=O)NCCCN1c2cc(Cl)ccc2Sc2cc3ccccc3nc21 [compound 7] | 1.3
COc1cccc2c1C(=O)c1c(O)c3c(c(O)c1C2=O)C[C@@](O)(C(=O)CO)C[C@@H]3O[C@H]1C[C@H](N)[C@H](O)[C@H](C)O1 [DX, doxorubicin, reference compound] | 0.15
Cc1ccc(S(=O)(=O)NCCCN2c3cc(Cl)ccc3Sc3cc4ccccc4nc32)cc1 [compound 11] | 1.0
CC(=O)NCCCCN1c2cc(Cl)ccc2Sc2cc3ccccc3nc21 [compound 13] | 1.0

system: MiaPaCa-2; test: not given; set-up: method as in earlier work; details: MTT assay; cited from earlier work

SMILES | IC50 [µM]
Clc1ccc2c(c1)N(CCN1CCCC1)c1nc3ccccc3cc1S2 [compound 3] | 57.4 ± 9.6
CN1CCCCC1CCN1c2cc(Cl)ccc2Sc2cc3ccccc3nc21 (stereo not shown) [compound 5] | 24.3 ± 3.5
COc1cccc2c1C(=O)c1c(O)c3c(c(O)c1C2=O)C[C@@](O)(C(=O)CO)C[C@@H]3O[C@H]1C[C@H](N)[C@H](O)[C@H](C)O1 [DX, doxorubicin, reference compound] | 0.6 ± 0.2

same assay, conditions: selectivity index vs HaCaT; cited from earlier work

SMILES | SI MiaPaCa-2
Clc1ccc2c(c1)N(CCN1CCCC1)c1nc3ccccc3cc1S2 [compound 3] | 1.7
CN1CCCCC1CCN1c2cc(Cl)ccc2Sc2cc3ccccc3nc21 (stereo not shown) [compound 5] | 0.5
COc1cccc2c1C(=O)c1c(O)c3c(c(O)c1C2=O)C[C@@](O)(C(=O)CO)C[C@@H]3O[C@H]1C[C@H](N)[C@H](O)[C@H](C)O1 [DX, doxorubicin, reference compound] | 0.14

system: HCT-116 cells; test: not given; details: MTT assay; read-out: IC50 HCT116; cited from earlier work

SMILES | IC50 [µM]
Clc1ccc2c(c1)N(CCN1CCCC1)c1nc3ccccc3cc1S2 [compound 3] | 17.5 ± 1.4
CN1CCCCC1CCN1c2cc(Cl)ccc2Sc2cc3ccccc3nc21 (stereo not shown) [compound 5] | 7.7
COc1cccc2c1C(=O)c1c(O)c3c(c(O)c1C2=O)C[C@@](O)(C(=O)CO)C[C@@H]3O[C@H]1C[C@H](N)[C@H](O)[C@H](C)O1 [DX, doxorubicin, reference compound] | 0.59 ± 0.02

same assay, conditions: selectivity index vs HaCaT; cited from earlier work

SMILES | SI HCT116
Clc1ccc2c(c1)N(CCN1CCCC1)c1nc3ccccc3cc1S2 [compound 3] | 5.7
CN1CCCCC1CCN1c2cc(Cl)ccc2Sc2cc3ccccc3nc21 (stereo not shown) [compound 5] | 1.6
COc1cccc2c1C(=O)c1c(O)c3c(c(O)c1C2=O)C[C@@](O)(C(=O)CO)C[C@@H]3O[C@H]1C[C@H](N)[C@H](O)[C@H](C)O1 [DX, doxorubicin, reference compound] | 0.5

system: A549 cells; test: not given; details: MTT assay; cited from earlier work

SMILES | IC50 [µM]
Clc1ccc2c(c1)N(CCN1CCCC1)c1nc3ccccc3cc1S2 [compound 3] | 17.4 ± 4.1
CN1CCCCC1CCN1c2cc(Cl)ccc2Sc2cc3ccccc3nc21 (stereo not shown) [compound 5] | 16 ± 4.2
CC(=O)NCCCN1c2cc(Cl)ccc2Sc2cc3ccccc3nc21 [compound 7] | 24.6 ± 6.1
COc1cccc2c1C(=O)c1c(O)c3c(c(O)c1C2=O)C[C@@](O)(C(=O)CO)C[C@@H]3O[C@H]1C[C@H](N)[C@H](O)[C@H](C)O1 [DX, doxorubicin, reference compound] | 0.6 ± 0.2
CC(=O)NCCCCN1c2cc(Cl)ccc2Sc2cc3ccccc3nc21 [compound 13] | 82.3 ± 6.2

same assay, conditions: selectivity index vs HaCaT; cited from earlier work

SMILES | SI A549
Clc1ccc2c(c1)N(CCN1CCCC1)c1nc3ccccc3cc1S2 [compound 3] | 5.7
CN1CCCCC1CCN1c2cc(Cl)ccc2Sc2cc3ccccc3nc21 (stereo not shown) [compound 5] | 1
CC(=O)NCCCN1c2cc(Cl)ccc2Sc2cc3ccccc3nc21 [compound 7] | 4.1
COc1cccc2c1C(=O)c1c(O)c3c(c(O)c1C2=O)C[C@@](O)(C(=O)CO)C[C@@H]3O[C@H]1C[C@H](N)[C@H](O)[C@H](C)O1 [DX, doxorubicin, reference compound] | 0.14
Cc1ccc(S(=O)(=O)NCCCN2c3cc(Cl)ccc3Sc3cc4ccccc4nc32)cc1 [compound 11] | 1.0
CC(=O)NCCCCN1c2cc(Cl)ccc2Sc2cc3ccccc3nc21 [compound 13] | 1.2

same assay, conditions: selectivity index vs HaCaT; listed as doxorubicin; cited from earlier work

SMILES | SI A549
COc1cccc2c1C(=O)c1c(O)c3c(c(O)c1C2=O)C[C@@](O)(C(=O)CO)C[C@@H]3O[C@H]1C[C@H](N)[C@H](O)[C@H](C)O1 [DX, doxorubicin, reference compound] | 0.14–0.15

system: PC3; test: not given; set-up: method as in earlier work; details: MTT assay; cited from earlier work

SMILES | IC50 [µM]
Clc1ccc2c(c1)N(CCN1CCCC1)c1nc3ccccc3cc1S2 [compound 3] | 77.1 ± 9.4
CN1CCCCC1CCN1c2cc(Cl)ccc2Sc2cc3ccccc3nc21 (stereo not shown) [compound 5] | 16.7 ± 1.8
COc1cccc2c1C(=O)c1c(O)c3c(c(O)c1C2=O)C[C@@](O)(C(=O)CO)C[C@@H]3O[C@H]1C[C@H](N)[C@H](O)[C@H](C)O1 [DX, doxorubicin, reference compound] | 0.8 ± 0.1

same assay, conditions: selectivity index vs HaCaT; cited from earlier work

SMILES | SI PC3
Clc1ccc2c(c1)N(CCN1CCCC1)c1nc3ccccc3cc1S2 [compound 3] | 1.3
CN1CCCCC1CCN1c2cc(Cl)ccc2Sc2cc3ccccc3nc21 (stereo not shown) [compound 5] | 0.7
COc1cccc2c1C(=O)c1c(O)c3c(c(O)c1C2=O)C[C@@](O)(C(=O)CO)C[C@@H]3O[C@H]1C[C@H](N)[C@H](O)[C@H](C)O1 [DX, doxorubicin, reference compound] | 0.15

system: HaCaT cells; test: not given; details: MTT assay, normal cells; cited from earlier work

SMILES | IC50 [µM]
Clc1ccc2c(c1)N(CCN1CCCC1)c1nc3ccccc3cc1S2 [compound 3] | < 100
CN1CCCCC1CCN1c2cc(Cl)ccc2Sc2cc3ccccc3nc21 (stereo not shown) [compound 5] | 12.7 ± 1.9
CC(=O)NCCCN1c2cc(Cl)ccc2Sc2cc3ccccc3nc21 [compound 7] | < 100
COc1cccc2c1C(=O)c1c(O)c3c(c(O)c1C2=O)C[C@@](O)(C(=O)CO)C[C@@H]3O[C@H]1C[C@H](N)[C@H](O)[C@H](C)O1 [DX, doxorubicin, reference compound] | 0.3 ± 0.1
Cc1ccc(S(=O)(=O)NCCCN2c3cc(Cl)ccc3Sc3cc4ccccc4nc32)cc1 [compound 11] | < 100
CC(=O)NCCCCN1c2cc(Cl)ccc2Sc2cc3ccccc3nc21 [compound 13] | < 100

system: not listed separately; test: RP-TLC lipophilicity (RM0, log PTLC, C0), silica gel RP-18F254, acetone/TRIS buffer pH 7.4; type: physicochemical; details: RP-TLC, RM extrapolated to 0% acetone, TRIS buffer pH 7.4
Method: In connection with this, in the next stage of the study, the parameters of lipophilicity of the tested compounds were determined experimentally. […] This technique was used to determine the retardation coefficient Rf for each compound in eight mobile phases consisting of acetone and Tris buffer in different volume ratios (50–85% acetone). Next, the Rf values were converted to the chromatographic parameter RM, and then the obtained values were extrapolated to 0% acetone content in the mobile phase obtaining the lipophilicity parameter RM0 (Table S2).
The parameter RM0 can be correlated to an experimental log P lipophilicity parameter of chemical molecules (log PTLC) by applying a calibration curve. The calibration curve was obtained by determining the Rf value for standard substances with a known log Plit value using the RP-TLC method under conditions analogous to those of the tested substances. After calculating the RM and RM0 values, the dependence of the log Plit parameter on the experimentally obtained RM0 values for standards was determined (Table 2).
The chromatographic parameter of lipophilicity was determined by means of Soczewiński–Wachtmeister’s method. […] The acetone ratio was 50 to 85% (v/v) in increments of 5%. The tested compounds in the form of an ethanol solution at a concentration of 2.0 mg/mL each were spotted on chromatographic plates at an amount of 2 µL each. Before analysis, the chromatography chamber (Camag, Switzerland) was saturated with the mobile phase (50 mL) for 30 min. After development at 20 ± 2 °C and subsequent drying, the chromatograms were observed under UV light at 254 nm by using a Camag UV lamp (Muttenz, Switzerland). Each analysis was performed in triplicate. The average value of the retardation factor (Rf) was used to calculate RM using Equation (1):(1) RM=log(1−Rf/Rf)
In addition, the chromatographic parameter of lipophilicity RM0 and b value allowed the determination of the chromatography hydrophobic index C0 by using the following formula:(3) C0=− RM0/b

SMILES | RM0
Clc1ccc2c(c1)N(CCN1CCCC1)c1nc3ccccc3cc1S2 [compound 3] | 3.96
CN1CCCCC1CCN1c2cc(Cl)ccc2Sc2cc3ccccc3nc21 (stereo not shown) [compound 5] | 4.20
CC(=O)NCCCN1c2cc(Cl)ccc2Sc2cc3ccccc3nc21 [compound 7] | 2.72
Cc1ccc(S(=O)(=O)NCCCN2c3cc(Cl)ccc3Sc3cc4ccccc4nc32)cc1 [compound 11] | 4.59
CC(=O)NCCCCN1c2cc(Cl)ccc2Sc2cc3ccccc3nc21 [compound 13] | 3.11

same assay, conditions: chromatography hydrophobic index, C0 = −RM0/b

SMILES | C0
Clc1ccc2c(c1)N(CCN1CCCC1)c1nc3ccccc3cc1S2 [compound 3] | 73.88
CN1CCCCC1CCN1c2cc(Cl)ccc2Sc2cc3ccccc3nc21 (stereo not shown) [compound 5] | 84.51
CC(=O)NCCCN1c2cc(Cl)ccc2Sc2cc3ccccc3nc21 [compound 7] | 76.19
Cc1ccc(S(=O)(=O)NCCCN2c3cc(Cl)ccc3Sc3cc4ccccc4nc32)cc1 [compound 11] | 79.96
CC(=O)NCCCCN1c2cc(Cl)ccc2Sc2cc3ccccc3nc21 [compound 13] | 77.17

same assay, conditions: from RM0 by calibration curve log PTLC = 1.2862RM0 + 0.2061

SMILES | chromatographic logP | log PTLC
Clc1ccc2c(c1)N(CCN1CCCC1)c1nc3ccccc3cc1S2 [compound 3] | 5.29 | 
CN1CCCCC1CCN1c2cc(Cl)ccc2Sc2cc3ccccc3nc21 (stereo not shown) [compound 5] |  | 5.61
CC(=O)NCCCN1c2cc(Cl)ccc2Sc2cc3ccccc3nc21 [compound 7] | 3.7 | 
Cc1ccc(S(=O)(=O)NCCCN2c3cc(Cl)ccc3Sc3cc4ccccc4nc32)cc1 [compound 11] | 6.1 | 
CC(=O)NCCCCN1c2cc(Cl)ccc2Sc2cc3ccccc3nc21 [compound 13] | 4.21 | 

system: standard strains of staphylococci; test: not given; details: mainly against standard strains of staphylococci; cited from earlier work

SMILES | antibacterial activity
Clc1ccc2c(c1)N(CCN1CCCC1)c1nc3ccccc3cc1S2 [compound 3] | moderate antibacterial activity
